Experimental findings from patent publication US8124766B2, “Inhibitors of diacylglycerol acyltransferase” (Madrigal Pharmaceuticals, Inc., priority 2008, dated 2012) are described below.

The term IC50 denotes the point on the concentration scale where inhibition reaches its midpoint.

The structures appear in SMILES notation. Where a name gives a salt, the structure may show the parent alone.

In this test the test system is DGAT. The experiment in a line: DGAT Phospholipid FlashPlate Assay. The format is biochemical. The conditions noted are these: DGAT pellet, DAG-coated PL-FlashPlate, 14C-Pal-CoA, 37° C. for 1 hour; read-out: DGAT Inhibition Activity IC50. The procedure: DGAT Phospholipid FlashPlate Assay
Materials for the assay were: PL-FlashPlate: Phospholipid FlashPlates from PerkinElmer, catalog number SMP108; DAG (1,2-Dioleoyl-sn-glycerol) 10 mM suspended in water containing 0.1% Triton X-100; ^14C-Pal-CoA (palmitoyl coenzyme A, [palmitoyl-1-^14C]) from PerkinElmer, catalog number NEC-555 with a specific activity of 55 mCi/mmol; and DGAT pellet, with a protein concentration of 9.85 mg/ml.
Aqueous buffers were prepared or purchased as follows: The coating buffer (CB) was purchased from PerkinElmer, catalog number SMP900A; the reaction buffer (RB) was 50 mM Tris-HCl, pH 7.5, 100 mM NaCl, 0.01% BSA in water; the washing buffer (WB) is 50 mM Tris-HCl, pH 7.5, 100 mM NaCl, 0.05% deoxycholic acid sodium salt in water; the dilution buffer (DB) was 50 mM Tris-HCl, pH 7.5, 100 mM NaCl, 1 mM EDTA, 0.2% Triton X-100 in water.
1,2-Dioleoyl-sn-glycerol (DAG, 10 mmoles) was diluted to 500 μM with coating buffer (CB). The diluted DAG solution was then added to 384-well PL-FlashPlates at 60 μl per well, and incubated at room temperature for 2 days. The coated plates were then washed twice with washing buffer (WB) before use. Test compounds were serial diluted to 2000, 666.7, 222.2, 74.1, 24.7, 8.2, 2.7 and 0.9 μM in 100% DMSO. Diluted compound were further diluted 10 fold with reaction buffer (RB). ^14C-Pal-CoA was diluted to 8.3 μM with RB. The DGAT pellet was diluted to 0.13 mg protein/ml with dilution buffer (DB) immediately before it was added to the PL-FlashPlates to start the reaction. 20 μl of the RB-diluted compounds (or 10% DMSO in RB for Total and Blank), 15 μl of RB diluted 14C-Pal-CoA and 15 μl of DB diluted DGAT pellet (DB without DGAT for Blanks) were transferred to each well of the PL-FlashPlates. The reaction mixtures were incubated at 37° C. for 1 hour. The reactions were stopped by washing 3 times with WB. Plates were sealed with Top-seal and read on a Topcount instrument.
Calculation of IC50: The IC50 values for each compound were generated using an Excel template. The Topcount rpm readings of Total and Blank were used as 0% and 100% inhibition. The percent inhibition values of reactions in the presence of compounds were calculated, and plotted against compound concentrations. All data were fitted into a Dose Response One Site model (4 parameter logistic model) as the following: (A+((B−A)/(1+((x/C)^D)))), with A and B as the bottom and top of the curve (highest and lowest inhibition), respectively, and C as IC50 and D as Hill Coefficient of the compound.
As to `CCn1c(C(=O)Nc2ccc(N3CCN(C(=O)OC(C)(C)C)CC3)nc2)cc2cc(Cl)ccc21` [Example 23, 4-{5-[(5-Chloro-1-ethyl-1H-indole-2-carbonyl)-amino]-pyridin-2-yl}-piperazine-1-carboxylic acid tert-butyl ester], the concentration for half-maximal inhibition (IC50) is 571 nM. Then `CC(C)(C)OC(=O)N1CCN(c2ccc(NC(=O)c3cc4c(Cl)cccc4s3)cc2)CC1` [Example 24, 4-{4-[(4-Chloro-benzo[b]thiophene-2-carbonyl)-amino]-phenyl}-piperazine-1-carboxylic acid tert-butyl ester], with 512 nM. For `CC(C)(CC(=O)N1CCC(c2ccc(NC(=O)c3cc4c(Cl)cccc4s3)cc2)CC1)C(=O)O` [Example 25, 4-(4-{4-[(4-Chloro-benzo[b]thiophene-2-carbonyl)-amino]-phenyl}-piperidin-1-yl)-2,2-dimethyl-4-oxo-butyric acid] the value was 127 nM; for `CC(C)(CC(=O)N1CCN(c2ccc(NC(=O)c3cc4c(Cl)cccc4s3)cc2)CC1)C(=O)O` [Example 26, 4-(4-{4-[(4-Chloro-benzo[b]thiophene-2-carbonyl)-amino]-phenyl}-piperazin-1-yl)-2,2-dimethyl-4-oxo-butyric acid], 145 nM; for `CCn1c(C(=O)Nc2ccc(N3CCN(C(=O)[C@H]4CC[C@H](C(=O)OCc5ccccc5)CC4)CC3)nc2)cc2c(OC)cccc21` [Example 27, trans-4-(4-{5-[(1-Ethyl-4-methoxy-1H-indole-2-carbonyl)-amino]-pyridin-2-yl}-piperazine-1-carbonyl)-cyclohexanecarboxylic acid benzyl ester], 826 nM.

With `CCn1c(C(=O)Nc2ccc(N3CCN(C(=O)[C@H]4CC[C@H](C(=O)O)CC4)CC3)nc2)cc2c(OC)cccc21` [Example 28, trans-4-(4-{5-[(1-Ethyl-4-methoxy-1H-indole-2-carbonyl)-amino]-pyridin-2-yl}-piperazine-1-carbonyl)-cyclohexanecarboxylic acid], the IC50 was found to be 385 nM. `CCOc1cccc2c1cc(C(=O)Nc1ccc(N3CCN(C(=O)[C@H]4CC[C@H](C(=O)O)CC4)CC3)cc1)n2CC` [Example 29, trans-4-(4-{4-[(4-Ethoxy-1-ethyl-1H-indole-2-carbonyl)-amino]-phenyl}-piperazine-1-carbonyl)-cyclohexanecarboxylic acid]: the IC50 was 980 nM. Then `CCn1c(C(=O)Nc2ccc(C3CCN(C(=O)[C@H]4CC[C@H](C(=O)O)CC4)CC3)cc2)cc2c(C)cccc21` [Example 30, trans-4-(4-{4-[(1-Ethyl-4-methyl-1H-indole-2-carbonyl)-amino]-phenyl}-piperidine-1-carbonyl)-trans-1,4-cyclohexanecarboxylic acid], with 824 nM. For `CCOc1cccc2c1cc(C(=O)Nc1ccc(N3CCN(C(=O)[C@@H]4CCC[C@H]4C(=O)O)CC3)cc1)n2CC` [Example 31, (1R,2R)-2-(4-{4-[(4-Ethoxy-1-ethyl-1H-indole-2-carbonyl)-amino]-phenyl}-piperazine-1-carbonyl)-cyclopentanecarboxylic acid] the value was 380 nM; for `CCOc1cccc2c1cc(C(=O)Nc1ccc(C3CCN(C(=O)[C@@H]4CCC[C@H]4C(=O)O)CC3)cc1)n2CC` [Example 32, (1R,2R)-2-(4-{4-[(4-Ethoxy-1-ethyl-1,1-indole-2-carbonyl)-amino]-phenyl}-piperidine-1-carbonyl)-cyclopentanecarboxylic acid], 495 nM; for `CCn1c(C(=O)Nc2ccc(N(C)CCOC)nc2)cc2cc(OC(F)(F)F)ccc21` [Example 33, 1-Ethyl-5-trifluoromethoxy-1H-indole-2-carboxylic acid {6-[(2-methoxy-ethyl)-methyl-amino]-pyridin-3-yl}-amide hydrochloride], 662 nM. As for `COCCN(C)c1ccc(NC(=O)c2cc3ccccc3s2)cn1` [Example 34, Benzo[b]thiophene-2-carboxylic acid {6-[(2-methoxy-ethyl)-methyl-amino]-pyridin-3-yl}-amide], the half-inhibitory concentration (IC50) was 683 nM. With `COCCN(C)c1ccc(NC(=O)c2sc3ccccc3c2C)cn1` [Example 35, 3-Methyl-benzo[b]thiophene-2-carboxylic acid {6-[(2-methoxy-ethyl)-methyl-amino]-pyridin-3-yl}-amide hydrochloride], the concentration for half-maximal inhibition (IC50) came to 351 nM.

As to `COCCN(C)c1ncc(NC(=O)c2sc3ccccc3c2C)cn1` [Example 36, 3-Methyl-benzo[b]thiophene-2-carboxylic acid {2-[(2-methoxy-ethyl)-methyl-amino]-pyrimidin-5-yl}-amide hydrochloride], the IC50 stood at 856 nM. Then `CCn1c(C(=O)Nc2ccc(N(C)CCOC)nc2)cc2ccccc21` [Example 37, 1-Ethyl-1H-indole-2-carboxylic acid {6-[(2-methoxy-ethyl)-methyl-amino]-pyridin-3-yl}-amide hydrochloride], with 425 nM; and `CCn1c(C(=O)Nc2ccc(N(C)CCOC)nc2)cc2c(OC)cccc21` [Example 38, 1-Ethyl-4-methoxy-1H-indole-2-carboxylic acid {6-[(2-methoxy-ethyl)-methyl-amino]-pyridin-3-yl}-amide hydrochloride], with 102 nM; and `CCn1c(C(=O)Nc2ccc(N(C)CCOC)nc2)cc2cc(OC)ccc21` [Example 39, 1-Ethyl-5-methoxy-1H-indole-2-carboxylic acid {6-[(2-methoxy-ethyl)-methyl-amino]pyridin-3-yl}-amide hydrochloride], with 312 nM. For `CCn1c(C(=O)Nc2ccc(N(C)CCOC)nc2)cc2cc(OCc3ccccc3)ccc21` [Example 40, 5-Benzyloxy-1-ethyl-1H-indole-2-carboxylic acid {6-[(2-methoxy-ethyl)-methyl-amino]-pyridin-3-yl}-amide] the value was 797 nM; for `CCCn1c(C(=O)Nc2ccc(N(C)CCOC)nc2)cc2ccccc21` [Example 41, 1-Propyl-1H-indole-2-carboxylic acid {6-[(2-methoxy-ethyl)-methyl-amino]-pyridin-3-yl}-amide hydrochloride], 937 nM; for `COCCN(C)c1ccc(NC(=O)c2cc3cc(Cl)ccc3n2C)cn1` [Example 42, 5-Chloro-1-methyl-1H-indole-2-carboxylic acid {6-[(2-methoxy-ethyl)-methyl-amino]-pyridin-3-yl}-amide hydrochloride], 750 nM. `CCn1c(C(=O)Nc2ccc(N(C)CCOC)nc2)cc2cc(Cl)ccc21` [Example 43, 5-Chloro-1-ethyl-4H-indole-2-carboxylic acid {6-[(2-methoxy-ethyl)-methyl-amino]-pyridin-3-yl}-amide hydrochloride]: the IC50 was found to be 161 nM. In the case of `CCOc1cccc2c1cc(C(=O)Nc1ccc(N3CCN(C(=O)CC(C)(C)C(=O)O)CC3)cc1)n2CC` [Example 44, 4-(4-{4-[(4-Ethoxy-1-ethyl-1H-indole-2-carbonyl)-amino]-phenyl}-piperazin-1-yl)-2,2-dimethyl-4-oxo-butyric acid], the IC50 stood at 489 nM.

Consider `CCn1c(C(=O)Nc2ccc(N(C)C3CC3)nc2)cc2cc(Cl)ccc21` [Example 45, 5-Chloro-1-ethyl-1H-indole-2-carboxylic acid [6-(cyclopropyl-methyl-amino)-pyridin-3-yl]-amide], for which the half-inhibitory concentration (IC50) is 668 nM.

`CCOC(=O)N1CC[C@H](Nc2ccc(NC(=O)c3cc4cc(Br)ccc4s3)cn2)C1` [Example 46, (S)-3-{5-[(5-Bromo-benzo[b]thiophene-2-carbonyl)-amino]pyridin-2-ylamino}-pyrrolidine-1-carboxylic acid ethyl ester hydrochloride]: the IC50 came to 303 nM. With `CCOC(=O)N1CC[C@H](Nc2ccc(NC(=O)c3cc4c(Cl)cccc4s3)cn2)C1` [Example 47, (S)-3-{5-[(4-Chloro-benzo[b]thiophene-2-carbonyl)-amino]pyridin-2-ylamino}-pyrrolidine-1-carboxylic acid ethyl ester hydrochloride], the IC50 amounted to 280 nM. For `CCOC(=O)N1CC[C@H](Nc2ccc(NC(=O)c3cc4ccccc4s3)cn2)C1` [Example 48, (S)-3-{5-[(Benzo[b]thiophene-2-carbonyl)-amino]-pyridin-2-ylamino}-pyrrolidine-1-carboxylic acid ethyl ester hydrochloride] the value was 396 nM.
